This experiment addresses T1, HIF-1α (Homo sapiens, UniProt Q16665).
T1 construct: endogenous in cells; host or cells: ARPE-19 (ATCC CRL-2302)
In words: Analysis of HIF-1α protein expression (Western blot) in ARPE-19 cells under mixed hypoxic condition. The class given is cell-based. The settings on record: concentration range at which HIF-1α expression is reduced by 50% vs untreated control. How it is done: ARPE-19 cells (Human retinal pigment epithelial cells, ATCC CRL-2302) were cultured in DMEM/F12 (LM002-08, Welgene) medium containing 10% fetal bovine serum (FBS, 16000-044, Gibco) in an incubator at 37°C with 5% carbon dioxide. When the cells grew sufficiently, they were cultured in experimental culture dishes for protein isolation and medium supernatant acquisition.
Cells were detached from the culture dish using TrypLE™ Express (Gibco). After centrifugation at 1000 rpm for 3 minutes, the supernatant was removed. The cells were counted and seeded into new culture dishes. Normoxic conditions were maintained by culturing the cells in a 37°C incubator with 5% carbon dioxide, and hypoxic conditions were maintained by culturing the cells in a hypoxic incubator with 1% oxygen, 5% carbon dioxide, and 94% nitrogen gas.
In a disease of macular degeneration, hypoxia is a very important condition, and since the expression of downstream genes is regulated by HIF-1α, a transcription factor that is stabilized in hypoxic conditions, the following experiment was conducted to confirm this.
Mixed hypoxic condition was used for HIF-1α stability experiments, in which hypoxia was induced with 1% oxygen and the stability of HIF-1α was enhanced by treatment with cobalt chloride (CoCl2).
The compounds of each Example were diluted to 0.1 nM, 1 nM, 3 nM, 10 nM, 30 nM, 100 nM, 300 nM, 1 µM, and 10 µM in DMEM/F12 medium without fetal bovine serum, pretreated for 16 hours or 2 hours, and cultured for 1 hour or 24 hours in a mixed hypoxic condition. The cell medium was discarded, and protein lysates were obtained by rapidly treating with protein lysis buffer (RIPA Lysis and Extraction buffer, Thermo Fisher Scientific). LDS (4X Bolt ™ LDS Sample buffer) and reducing agent (10X Bolt ™ Sample Reducing Agent) were added together to the protein lysate, and heated at 70°C for 10 minutes. The lysate was separated by electrophoresis on a 4-12% Bis-Tris gel, transferred to a PVDF membrane, and blocked with 3% BSA (Albumin, Bovine, Fraction V, MPbio). The membrane was incubated overnight at 4°C with a mixture of anti-HIF-1α (ab179483, abcam) and anti-b-actin (MA515739, Invitrogen) antibodies at a ratio of 1:4000. The following day, the membrane was treated with a peroxidase-conjugated secondary antibody for 1 hour at room temperature, and the target protein was expressed using an ECL solution (Clarity ™ Western ECL substrate, Bio-rad) and quantified.
Based on the results of the expression level of HIF-1α in cells treated with compounds diluted from 10 µM to 0.1 nM, the concentration range of the compound at which the expression level of HIF-1α was reduced by 50% or less compared to the untreated control group was derived.
(In general: Immunoblotting shows a protein as a band on a membrane.)

The mark [1] stands for this setting: mixed hypoxic condition (1% oxygen + CoCl2) for 1 hour, read-out: IC50 HIF-1α Hypoxia (1 hour).
Setting [2] is: values marked * in the table, mixed hypoxic condition (1% oxygen + CoCl2) for 24 hours, read-out: IC50 HIF-1α, Hypoxia(24h).

Counter-ions that a name gives are not always drawn. Like-named read-outs stand apart in the source and are kept apart here.

T1 sequence (Q16665 whole entry): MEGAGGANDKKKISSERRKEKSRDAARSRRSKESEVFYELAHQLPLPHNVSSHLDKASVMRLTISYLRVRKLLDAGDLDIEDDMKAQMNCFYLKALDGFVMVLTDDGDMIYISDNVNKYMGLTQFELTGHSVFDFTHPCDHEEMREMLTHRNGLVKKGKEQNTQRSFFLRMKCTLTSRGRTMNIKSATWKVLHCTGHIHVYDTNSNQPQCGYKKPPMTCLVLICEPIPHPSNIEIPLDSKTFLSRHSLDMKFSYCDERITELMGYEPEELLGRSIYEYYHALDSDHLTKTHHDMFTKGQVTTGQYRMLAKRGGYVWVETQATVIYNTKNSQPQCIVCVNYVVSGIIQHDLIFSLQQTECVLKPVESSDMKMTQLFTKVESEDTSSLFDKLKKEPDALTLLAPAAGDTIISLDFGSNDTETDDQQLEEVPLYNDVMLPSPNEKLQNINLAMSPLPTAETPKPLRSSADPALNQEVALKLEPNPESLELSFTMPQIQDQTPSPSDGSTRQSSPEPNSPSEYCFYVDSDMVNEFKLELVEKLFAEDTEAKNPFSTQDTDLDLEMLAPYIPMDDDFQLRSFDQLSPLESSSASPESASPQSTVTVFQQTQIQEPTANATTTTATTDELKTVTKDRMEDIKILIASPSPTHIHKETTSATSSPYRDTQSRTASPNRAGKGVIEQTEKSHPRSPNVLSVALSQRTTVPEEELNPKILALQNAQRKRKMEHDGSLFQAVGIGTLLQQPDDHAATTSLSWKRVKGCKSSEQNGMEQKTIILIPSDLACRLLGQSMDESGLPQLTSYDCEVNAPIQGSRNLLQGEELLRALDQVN

For the molecule `Cn1cc(-c2cccc(C3(NC(=O)c4ncnc5nc(C6CCCC6)[nH]c45)CC3)c2)cn1` [Example 6, 8-Cyclopentyl-N-(1-(3-(1-methyl-1H-pyrazol-4-yl)phenyl)cyclopropyl)-7H-purine-6-carboxamide], the DC50 under setting [1] lay within 100 to 1000 nM.

As for `O=C(NCc1cc(F)cc(Br)c1)c1ncnc2nc(C3CCCC3)[nH]c12` [Example 14, N-(3-bromo-5-fluorobenzyl)-8-cyclopentyl-7H-purine-6-carboxamide], under setting [1], the DC50 was 100 to 1000 nM.

On to `C[Si](C)(C)CCOCn1c(C2CCCC2)nc2ncnc(C(=O)NCc3cc(F)cc(-c4cnn(-c5cccc(C#N)c5)c4)c3)c21` [Example 22, N-(3-(1-(3-cyanophenyl)-1H-pyrazol-4-yl)-5-fluorobenzyl)-8-cyclopentyl-7-((2-(trimethylsilyl)ethoxy)methyl)-7H-purine-6-carboxamide], for which the DC50 under setting [1] lay within 100 to 1000 nM.

Regarding `Cn1c(C2CCCC2)nc2ncnc(C(=O)NCc3cc(F)cc(-c4cnn(-c5ccc(F)cc5)c4)c3)c21` [Example 55, 8-Cyclopentyl-N-(3-fluoro-5-(1-(4-fluorophenyl)-1H-pyrazol-4-yl)benzyl)-7-methyl-7H-purine-6-carboxamide], the DC50 under setting [1] lay in the range of 100 to 1000 nM.

On to `O=C(NCc1cc(F)cc(-c2cnn(-c3ccc(F)cc3)c2)c1)c1nc(Cl)nc2nc(C3CCCC3)[nH]c12` [Example 61, 2-Chloro-8-cyclopentyl-N-(3-fluoro-5-(1-(4-fluorophenyl)-1H-pyrazol-4-yl)benzyl)-7H-purine-6-carboxamide], for which the DC50 under setting [1] is 100 to 1000 nM.

For the molecule `Cn1cc(-c2cc(F)cc(CNC(=O)c3ncnc4nc([C@@H]5CCCN5)[nH]c34)c2)cn1` [Example 62, (S)-N-(3-fluoro-5-(1-methyl-1H-pyrazol-4-yl)benzyl)-8-(pyrrolidin-2-yl)-7H-purine-6-carboxamide hydrochloride], the DC50 under setting [1] was 1000 to 10000 nM.

As to `Cn1cc(-c2cc(F)cc(CNC(=O)c3ncnc4nc([C@H]5CCCN5C(=O)OCc5ccccc5)[nH]c34)c2)cn1` [Example 64, Benzyl (R)-2-(6-((3-fluoro-5-(1-methyl-1H-pyrazol-4-yl)benzyl)carbamoyl)-7H-purin-8-yl)pyrrolidine-1-carboxylate], under setting [1], the DC50 lay in the range of 1000 to 10000 nM.

`Cn1cc(-c2cc(F)cc(CNC(=O)c3ncnc4nc([C@H]5CCCN5)[nH]c34)c2)cn1` [Example 65, (R)-N-(3-fluoro-5-(1-methyl-1H-pyrazol-4-yl)benzyl)-8-(pyrrolidin-2-yl)-7H-purine-6-carboxamide hydrochloride]: the DC50 under setting [1] was 1000 to 10000 nM.

Take `CC(C)N1CCC[C@H]1c1nc2ncnc(C(=O)NCc3cc(F)cc(-c4cnn(C)c4)c3)c2[nH]1` [Example 67, (S)-N-(3-fluoro-5-(1-methyl-1H-pyrazol-4-yl)benzyl)-8-(1-isopropylpyrrolidin-2-yl)-7H-purine-6-carboxamide]: under setting [1], the DC50 was 1000 to 10000 nM.

On to `CN1CCC[C@@H]1c1nc2ncnc(C(=O)NCc3cccc(F)c3)c2[nH]1` [Example 68, (R)-N-(3-fluorobenzyl)-8-(1-methylpyrrolidin-2-yl)-7H-purine-6-carboxamide], for which the DC50 under setting [1] is 1000 to 10000 nM.

On to `Cn1cc(-c2cc(F)cc(CNC(=O)c3ncnc4nc(C5CCN(C(=O)OCc6ccccc6)CC5)[nH]c34)c2)cn1` [Example 69, Benzyl 4-(6-((3-fluoro-5-(1-methyl-1H-pyrazol-4-yl)benzyl)carbamoyl)-7H-purin-8-yl)piperidine-1-carboxylate], for which the DC50 under setting [1] lay within 100 to 1000 nM.

With `Cn1cc(-c2cc(F)cc(CNC(=O)c3ncnc4nc(C5CCNCC5)[nH]c34)c2)cn1` [Example 70, N-(3-fluoro-5-(1-methyl-1H-pyrazol-4-yl)benzyl)-8-(piperidin-4-yl)-7H-purine-6-carboxamide hydrochloride], the DC50 under setting [1] lay in the range of 100 to 1000 nM.

Take `CN1CCC(c2nc3ncnc(C(=O)NCc4cc(F)cc(-c5cnn(C)c5)c4)c3[nH]2)CC1` [Example 71, N-(3-fluoro-5-(1-methyl-1H-pyrazol-4-yl)benzyl)-8-(1-methylpiperidin-4-yl)-7H-purine-6-carboxamide]: the DC50 under setting [1] is 1000 to 10000 nM.

As for `Cn1cc(-c2cc(F)cc(CNC(=O)c3ncnc4nc(CNC(=O)OCc5ccccc5)[nH]c34)c2)cn1` [Example 72, Benzyl ((6-((3-fluoro-5-(1-methyl-1H-pyrazol-4-yl)benzyl)carbamoyl)-7H-purin-8-yl)methyl)carbamate], under setting [1], the DC50 fell in the range of 1000 to 10000 nM.

Take `Cn1cc(-c2cc(F)cc(CNC(=O)c3ncnc4nc(CN)[nH]c34)c2)cn1` [Example 73, 8-(Aminomethyl)-N-(3-fluoro-5-(1-methyl-1H-pyrazol-4-yl)benzyl)-7H-purine-6-carboxamide]: the DC50 under setting [1] lay in the range of 1000 to 10000 nM.

Regarding `Cn1cc(-c2cc(F)cc(CNC(=O)c3ncnc4nc[nH]c34)c2)cn1` [Example 74, N-(3-fluoro-5-(1-methyl-1H-pyrazol-4-yl)benzyl)-7H-purine-6-carboxamide], the DC50 under setting [1] fell in the range of 1000 to 10000 nM.

Turning to `Cn1cc(-c2cc(F)cc(CNC(=O)c3ncnc4nc(C5CCN(C(=O)OCc6ccccc6)C5)[nH]c34)c2)cn1` (stereo not drawn) [Example 75, Benzyl 3-(6-((3-fluoro-5-(1-methyl-1H-pyrazol-4-yl)benzyl)carbamoyl)-7H-purin-8-yl)pyrrolidine-1-carboxylate], the DC50 under setting [1] was in the range of 100 to 1000 nM.

As to `Cn1cc(-c2cc(F)cc(CNC(=O)c3ncnc4nc(C5CCNC5)[nH]c34)c2)cn1` (stereo not drawn) [Example 76, N-(3-fluoro-5-(1-methyl-1H-pyrazol-4-yl)benzyl)-8-(pyrrolidin-3-yl)-7H-purine-6-carboxamide hydrochloride], under setting [1], the DC50 was 1000 to 10000 nM.

With `CN1CCC(c2nc3ncnc(C(=O)NCc4cc(F)cc(-c5cnn(C)c5)c4)c3[nH]2)C1` (stereo not drawn) [Example 79, N-(3-fluoro-5-(1-methyl-1H-pyrazol-4-yl)benzyl)-8-(1-methylpyrrolidin-3-yl)-7H-purine-6-carboxamide], the DC50 under setting [1] lay within 1000 to 10000 nM.

Turning to `O=C(NCc1cc(F)cc(-c2cnn(-c3ccc(F)cc3)c2)c1)c1ncnc2nc(C3CCOC3)[nH]c12` (stereo not drawn) [Example 89, N-(3-fluoro-5-(1-(4-fluorophenyl)-1H-pyrazol-4-yl)benzyl)-8-(tetrahydrofuran-3-yl)-7H-purine-6-carboxamide], the DC50 under setting [2] is 100 to 1000 nM.

For `C[C@@H](NC(=O)c1ncnc2nc(C3CCCC3)[nH]c12)c1cccc(-c2cnn(-c3ccc(F)cc3)c2)c1` [Example 90, (R)-8-cyclopentyl-N-(1-(3-(1-(4-fluorophenyl)-1H-pyrazol-4-yl)phenyl)ethyl)-7H-purine-6-carboxamide], under setting [2], the DC50 was 100 to 1000 nM.

Consider `C[C@H](NC(=O)c1ncnc2nc(C3CCCC3)[nH]c12)c1cccc(-c2cnn(-c3ccc(F)cc3)c2)c1` [Example 91, (S)-8-cyclopentyl-N-(1-(3-(1-(4-fluorophenyl)-1H-pyrazol-4-yl)phenyl)ethyl)-7H-purine-6-carboxamide], for which the DC50 under setting [2] lay in the range of 1000 to 10000 nM.

For `O=C(NCCc1cccc(-c2cnn(-c3ccc(F)cc3)c2)c1)c1ncnc2nc(C3CCCC3)[nH]c12` [Example 94, 8-Cyclopentyl-N-(3-(1-(4-fluorophenyl)-1H-pyrazol-4-yl)phenethyl)-7H-purine-6-carboxamide], the DC50 under setting [2] lay in the range of 100 to 1000 nM.

Consider `O=C(NCc1ccc(F)c(-c2cnn(-c3ccc(F)cc3)c2)c1)c1ncnc2nc(C3CCCC3)[nH]c12` [Example 96, 8-Cyclopentyl-N-(4-fluoro-3-(1-(4-fluorophenyl)-1H-pyrazol-4-yl)benzyl)-7H-purine-6-carboxamide], for which, under setting [2], the DC50 was 100 to 1000 nM.

These data come from patent publication EP4567035A1, “NOVEL COMPOUND AS HYPOXIA-INDUCIBLE FACTOR 1(HIF-1) INHIBITOR OR VASCULAR ENDOTHELIAL GROWTH FACTOR (VEGF) INHIBITOR, AND PHARMACEUTICAL COMPOSITION COMPRISING SAME” (Nextgen Bioscience Co., Ltd., priority 2022, dated 2024).
